Laboratory results: PubChem BioAssay AID248 (DTP/NCI, 2004)
Toxic doses and inconclusive results are not listed. Cut-off read from the data, not from the text of the source: active = T/C of 150% or more; inactive = T/C below 125%.

System: L1210 leukemia ip in BDF1 mice, survival T/C
Test: NCI In Vivo Anticancer Drug Screen. Data for tumor model L1210 Leukemia (intraperitoneal) in B6D2F1 (BDF1) mice
Conditions: endpoint: mean survival time, higher = longer survival
Method in brief: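 Transplanted-tumor mice were given test agent; controls received vehicle only. Survival readings from the two groups were divided (treated over control).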

[1] = dose: 50.0 mg/kg/injection, schedule: Q01DX001 (ip), vehicle: carboxymethylcellulose (CMC)
[2] = dose: 100.0 mg/kg/injection, schedule: Q01DX001 (ip), vehicle: carboxymethylcellulose (CMC)
[3] = dose: 200.0 mg/kg/injection, schedule: Q01DX001 (ip), vehicle: carboxymethylcellulose (CMC)
[4] = dose: 400.0 mg/kg/injection, schedule: Q01DX001 (ip), vehicle: carboxymethylcellulose (CMC)
[5] = dose: 100.0 mg/kg/injection, schedule: Q04DX003 (ip), vehicle: saline with Tween-80
[6] = dose: 200.0 mg/kg/injection, schedule: Q04DX003 (ip), vehicle: saline with Tween-80
[7] = dose: 100.0 mg/kg/injection, schedule: Q01DX009 (ip), vehicle: Klucel (hydroxypropylcellulose) (HPC)
[8] = dose: 200.0 mg/kg/injection, schedule: Q01DX009 (ip), vehicle: Klucel (hydroxypropylcellulose) (HPC)
[9] = dose: 400.0 mg/kg/injection, schedule: Q01DX009 (ip), vehicle: Klucel (hydroxypropylcellulose) (HPC)
[10] = dose: 100.0 mg/kg/injection, schedule: Q04DX003 (ip), vehicle: Klucel (hydroxypropylcellulose) (HPC)
[11] = dose: 200.0 mg/kg/injection, schedule: Q04DX003 (ip), vehicle: Klucel (hydroxypropylcellulose) (HPC)
[12] = dose: 400.0 mg/kg/injection, schedule: Q04DX003 (ip), vehicle: Klucel (hydroxypropylcellulose) (HPC)
[13] = dose: 100.0 mg/kg/injection, schedule: Q04DX003 (ip), vehicle: saline
[14] = dose: 200.0 mg/kg/injection, schedule: Q04DX003 (ip), vehicle: saline
[15] = dose: 400.0 mg/kg/injection, schedule: Q04DX003 (ip), vehicle: saline
[16] = dose: 200.0 mg/kg/injection, schedule: Q01DX001 (ip), vehicle: saline

Measured: T/C

O=S(=O)(c1ccc(I)cc1)c1ccc(I)cc1
inactive: [1] 104 % of control | [2] 95 % of control | [3] 88 % of control | [4] 95 % of control

O=C(Nc1ccccc1[N+](=O)[O-])C(=O)Nc1ccccc1[N+](=O)[O-]
inactive: dose: 50.0 mg/kg/injection, schedule: Q01DX009 (ip), vehicle: saline with Tween-80 91 % of control | dose: 100.0 mg/kg/injection, schedule: Q01DX009 (ip), vehicle: saline with Tween-80 86 % of control | [5] 95 % of control | dose: 200.0 mg/kg/injection, schedule: Q01DX009 (ip), vehicle: saline with Tween-80 94 % of control | [6] 93 % of control

O=C(O)COc1cccc([N+](=O)[O-])c1
inactive: [7] 96 % of control | [8] 98 % of control | [9] 94 % of control

CC(C)[N+](C(C)C)(C(C)C)C(C)C.[I][Pb]([I])([I])[I]
inactive: [5] 95 % of control | [6] 98 % of control | dose: 400.0 mg/kg/injection, schedule: Q04DX003 (ip), vehicle: saline with Tween-80 93 % of control

CCCC(Br)C(=O)OCC (centres undefined)
inactive: [5] 101 % of control | [6] 96 % of control

CC12C(C#N)=C(c3ccccc3)C=C(c3ccccc3)C1=C(c1ccccc1)c1ccccc12 (centres undefined)
inactive: [7] 100 % of control | [10] 89 % of control | [8] 100 % of control | [11] 100 % of control | [9] 94 % of control | [12] 94 % of control

CCNC(=O)OC1C=CS(=O)(=O)C1 (centres undefined)
inactive: dose: 100.0 mg/kg/injection, schedule: Q04DX002 (ip), vehicle: saline 106 % of control | dose: 200.0 mg/kg/injection, schedule: Q04DX002 (ip), vehicle: saline 92 % of control | dose: 400.0 mg/kg/injection, schedule: Q04DX002 (ip), vehicle: saline 106 % of control

CCOS(=O)O
inactive: [13] 96 % of control | [14] 96 % of control | [15] 98 % of control

O=C(O)c1cccc(OCc2ccccc2)c1
inactive: [7] 105 % of control | [8] 100 % of control

COC(=O)C1CNc2ccccc2C1=O (centres undefined)
inactive: [1] 97 % of control | [2] 92 % of control | [3] 97 % of control | [4] 92 % of control

Cc1nc2[nH][nH]c(=O)c2nc1C
inactive: dose: 50.0 mg/kg/injection, schedule: Q01DX009 (ip), vehicle: Klucel (hydroxypropylcellulose) (HPC) 94 % of control | [7] 100 % of control | [10] 97 % of control | [8] 94 % of control | [11] 105 % of control | [12] 102 % of control

COC(=O)C1C(C)(C(=O)OC)N=NC1(c1ccccc1)c1ccccc1 (centres undefined)
inactive: dose: 100.0 mg/kg/injection, schedule: Q01DX001 (ip), vehicle: steriod suspending solution 101 % of control | dose: 200.0 mg/kg/injection, schedule: Q01DX001 (ip), vehicle: steriod suspending solution 104 % of control | dose: 400.0 mg/kg/injection, schedule: Q01DX001 (ip), vehicle: steriod suspending solution 98 % of control

Cc1ccc(CNC(=O)NC(C)(C)C)cc1
inactive: [7] 93 % of control | [8] 101 % of control | [9] 90 % of control

CCP(=S)(CP(=S)(c1ccccc1)c1ccccc1)c1ccccc1 (centres undefined)
inactive: dose: 100.0 mg/kg/injection, schedule: Q04DX002 (sc), vehicle: olive oil, sesame oil, peanut oil 104 % of control | dose: 200.0 mg/kg/injection, schedule: Q04DX002 (sc), vehicle: olive oil, sesame oil, peanut oil 104 % of control | dose: 400.0 mg/kg/injection, schedule: Q04DX002 (sc), vehicle: olive oil, sesame oil, peanut oil 104 % of control

O=C(O)C1CCCCC1/C=N/Nc1ccc([N+](=O)[O-])cc1[N+](=O)[O-] (centres undefined)
inactive: dose: 50.0 mg/kg/injection, schedule: Q01DX001 (ip), vehicle: saline 93 % of control | [16] 89 % of control

CC1CCC2(CC1)CCN(CCCN(C)C)CC2
inactive: dose: 15.0 mg/kg/injection, schedule: Q01DX015 (ip), vehicle: saline 102 % of control | dose: 30.0 mg/kg/injection, schedule: Q01DX015 (ip), vehicle: saline 102 % of control | dose: 60.0 mg/kg/injection, schedule: Q01DX015 (ip), vehicle: saline 100 % of control | dose: 120.0 mg/kg/injection, schedule: Q01DX015 (ip), vehicle: saline 104 % of control | dose: 200.0 mg/kg/injection, schedule: Q01DX015 (ip), vehicle: saline 107 % of control

CC(=O)Nc1ccc(CC(=O)O)cc1
inactive: dose: 100.0 mg/kg/injection, schedule: Q01DX001 (ip), vehicle: saline with Tween-80 96 % of control | dose: 200.0 mg/kg/injection, schedule: Q01DX001 (ip), vehicle: saline with Tween-80 93 % of control | dose: 400.0 mg/kg/injection, schedule: Q01DX001 (ip), vehicle: saline with Tween-80 100 % of control

O=c1cc(Nc2ccc(Cl)cc2)[nH]c(=O)[nH]1
inactive: dose: 100.0 mg/kg/injection, schedule: Q01DX001 (ip), vehicle: gum acacia 101 % of control | dose: 400.0 mg/kg/injection, schedule: Q01DX001 (ip), vehicle: gum acacia 101 % of control

Nc1ccc(NS(=O)(=O)CS(=O)(=O)Nc2ccc(N)cc2)cc1
inactive: dose: 10.0 mg/kg/injection, schedule: Q01DX001 (ip), vehicle: saline 96 % of control | dose: 20.0 mg/kg/injection, schedule: Q01DX001 (ip), vehicle: saline 101 % of control | dose: 40.0 mg/kg/injection, schedule: Q01DX001 (ip), vehicle: saline 101 % of control

NNc1ccc(S(=O)(=O)C(F)(F)C(F)Cl)cc1 (centres undefined)
inactive: dose: 100.0 mg/kg/injection, schedule: Q01DX009 (ip), vehicle: gum acacia 105 % of control | dose: 100.0 mg/kg/injection, schedule: Q04DX003 (ip), vehicle: gum acacia 101 % of control | dose: 200.0 mg/kg/injection, schedule: Q01DX009 (ip), vehicle: gum acacia 100 % of control | dose: 200.0 mg/kg/injection, schedule: Q04DX003 (ip), vehicle: gum acacia 96 % of control | dose: 400.0 mg/kg/injection, schedule: Q04DX003 (ip), vehicle: gum acacia 96 % of control

O=S(=O)(C1CC1c1ccccc1)N1CCCc2ccccc21 (centres undefined)
inactive: dose: 100.0 mg/kg/injection, schedule: Q01DX001 (ip), vehicle: saline 103 % of control | [13] 98 % of control | [16] 103 % of control | [14] 98 % of control | dose: 400.0 mg/kg/injection, schedule: Q01DX001 (ip), vehicle: saline 95 % of control | [15] 104 % of control

CCOC(=O)Nc1ccc2c(c1)/C(=N\NC(=S)NC)c1ccccc1-2
inactive: dose: 75.0 mg/kg/injection, schedule: Q01DX001 (ip), vehicle: carboxymethylcellulose (CMC) 90 % of control | dose: 150.0 mg/kg/injection, schedule: Q01DX001 (ip), vehicle: carboxymethylcellulose (CMC) 92 % of control | dose: 300.0 mg/kg/injection, schedule: Q01DX001 (ip), vehicle: carboxymethylcellulose (CMC) 88 % of control

CCN(CC)CC(=O)NCC(CCN1CCCCC1)(CCN1CCCCC1)c1cccc2ccccc12
inactive: dose: 25.0 mg/kg/injection, schedule: Q01DX009 (ip), vehicle: saline 96 % of control | dose: 50.0 mg/kg/injection, schedule: Q01DX009 (ip), vehicle: saline 104 % of control | [13] 110 % of control

CC12CCCCC1CC(=O)/C(=C\O)C2 (centres undefined)
inactive: dose: 25.0 mg/kg/injection, schedule: Q04DX002 (ip), vehicle: DMSO 94 % of control | dose: 50.0 mg/kg/injection, schedule: Q04DX002 (ip), vehicle: DMSO 90 % of control
